Laboratory results as given in patent publication US11945806B2, “Stabilization of amyloidogenic immunoglobulin light chains” (The Scripps Research Institute, priority 2019, dated 2024).

Assays:
[1] = tested on: WIL-FL*; test: FP artefact counterscreen (compounds added after 24 h of proteinase K treatment); assay type: biochemical, human; parameters: concentration or dose not given beside the values; details: compound added after 24 h PK treatment; mean ± sd, n=3
Experimental: Secondly, to remove compounds that interfere with the FP measurement, the primary screen was repeated in triplicate but compounds were added after 24 h of proteinase K treatment (FIG. 1f). […] Bona fide hits should retain no FP beyond the low control.

[2] = target: T1, WIL-FL* (Homo sapiens, UniProt P01721, K101C, form not given); test: PCFP assay with thermolysin; details: mean ± sd, n=3; 6.75 μM compound
[3] = target: T1, WIL-FL*; test: Protease-coupled fluorescence polarization (PCFP) assay with proteinase K; details: for EC50: from dose response curves measured during the screening process
[4] = target: T2, WIL-FL (Homo sapiens, UniProt P01721); test: PK proteolysis of unlabeled WIL-FL by SDS-PAGE; details: WIL-FL 10 μM, small molecule 100 μM, t=2 h
Experimental: The experiment in FIG. 1b measured simultaneous proteolysis of labeled and unlabeled LC by adding 20 nM WIL-FL* or JTO-FL* to 5 μM WIL-FL or JTO-FL, respectively. Fluorescein fluorescence images of the SDS-PAGE gels were recorded, after which the gels were Coomassie stained and imaged.

[5] = target: T2, WIL-FL; test: Unlabeled LC Protease Sensitivity Assay (proteinase K); assay type: biochemical; details: small molecule 10 μM, WIL-FL 5 μM, proteinase K 50 nM, 2 hours at 37° C.
Outline: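 Compound at 10 μM (1% DMSO) is mixed with 5 μM WIL-FL and 50 nM proteinase K in PBS pH 7.4/0.02% Pluronic F-127, 37 °C, 2 h, then quenched with PMSF. Remaining protein measured by SEC-UPLC peak area at 280 nm and expressed as fold protection relative to vehicle and no-protease controls.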

[6] = target: T2, WIL-FL; test: Kinetic unfolding in urea; assay type: biochemical; details: 5 at 50 μM, WIL-FL 5 μM; 3.57 s^−1 for WIL-FL alone
Experimental: Kinetic unfolding. WIL-FL (5 μM) in 50 mM sodium phosphate buffer, pH 7.0, containing 50 μM 5 was rapidly diluted into urea in 50 mM sodium phosphate buffer and 50 μM 5 using an APP SX-20 stopped flow fluorimeter at 37° C. The change in fluorescence emission >335 nm was measured as a function of time (λex=280 nm). […] Kinetic transients were fitted to single exponential curves and rates extracted.

[7] = target: T2, WIL-FL; test: Equilibrium unfolding, urea titration; assay type: biochemical; details: 1 at 100 μM or 5 at 50 μM, WIL-FL 5 μM; 1.4 M without ligand
Experimental: Equilibrium unfolding. WIL-FL (5 μM) was titrated against urea in 50 mM sodium phosphate buffer, pH 7.0, containing 50 μM 5 or 100 μM 1. After incubation overnight at 25° C., intrinsic tryptophan fluorescence emission spectra were measured using a Jasco 8600 fluorimeter (μex=280 nm, μem=300-420 nm). Average wavelength (also known as center of spectral mass) values were calculated using the equation: […]
λi and Ii are the are the wavelength and intensity at i, respectively. Average wavelength data were normalized for comparison. […] Midpoint urea concentrations were calculated by fitting the titration data to a 2-state unfolding equation: […]
x is the urea concentration (M), G is the free energy of unfolding (kJ mol^−1), m is the denaturant dependence of the unfolding reaction (kJ mol^−1 M^−1), R is the ideal gas constant, T is the temperature in K, a and c are the fluorescence of the folded and unfolded states, and b and d are the denaturant dependence of the fluorescence of the folded and unfolded states, respectively.

[8] = secondary screen, mean ± sd, n=3, 6.75 μM compound, FP retention after 24 h at 22° C., normalized to high and low controls
[9] = Primary screen, n=1, 6.75 μM compound

Row | Structure (SMILES) | Counterscreen activity (%) [1] [%] | Thermolysin activity (%) [2] [%] | EC50 [3] [µM] | PK activity (%) [3, 8] [%] | Protection (fold protection of LC from protease) [5] | further results
1 | CCN(CC)c1ccc2c(C)c(CC(C)=O)c(=O)oc2c1 [Compound 14] | 1.67 ± 4.7 | 34.8 ± 3.1 | 9.04 | 41.9 ± 3.0 |  | 
2 | CC1CCCCC12NC(=O)N(CC(=O)Nc1ccc(C(F)(F)F)cc1)C2=O (stereo not shown) [Compound 7] | 2.51 ± 4.7 | 26.3 ± 1.7 | 5.87 | 29.3 ± 2.5 |  | 
3 | CC(C)CC1NC(=O)N(CC(=O)Nc2ccc(C(F)(F)F)cc2)C1=O (racemic) [Compound 8] | −2.05 ± 2.9 | 50.8 ± 1.7 | 7.36 | 48.0 ± 2.4 |  | 
4 | Cc1cc(=O)oc2cc(O)ccc12 [Compound 19] |  |  |  |  |  | PK activity (%) [3, 9]: 2.27 (Primary screen) %
5 | CN(C)c1ccc(C2OCC(Cl)([N+](=O)O)CO2)cc1 (stereo not shown) [Compound 16] | −3.09 ± 3.0 | 29.1 ± 0.3 | 6.73 | 50.5 ± 5.3 |  | 
6 | CCOC(=O)Cc1c(C)c2ccc(N(CC)CC)cc2oc1=O [Compound 2] | −4.13 ± 5.2 | 33.8 ± 3.1 | 6.92 | 37.8 ± 1.4 |  | 
7 | O=c1ccc2ccccc2o1 [Compound 21] |  |  |  |  |  | PK activity (%) [3, 9]: 2.58 (Primary screen) %
8 | CCN(CC)c1ccc2c(CN3CCOCC3)cc(=O)oc2c1 [Compound 13] | −4.10 ± 1.5 | 23.3 ± 8.5 | 9.15 | 4.21 ± 4.4 |  | 
9 | CCN(CC)c1ccc2c(C)c(CN3CCOCC3)c(=O)oc2c1 [Compound 12] | 0.41 ± 2.5 | 30.2 ± 4.2 | 11.3 | 37.2 ± 7.3 |  | 
10 | CCN(CC)c1ccc2c(C)c(CCN3C(=O)NC4(CCN(S(=O)(=O)c5cccnc5)C4)C3=O)c(=O)oc2c1 (stereo not shown) [Compound 202, 3-(2-(7-(diethylamino)-4-methyl-2-oxo-2H-chromen-3-yl)ethyl)-7-(pyridin-3-ylsulfonyl)-1,3,7-triazaspiro[4.4]nonane-2,4-dione] |  |  |  |  | C (C ≥ 0.6) | 
11 | CCN(CC)c1ccc2c(C)c(CCOC(=O)NCC3CCCNC3)c(=O)oc2c1 (stereo not shown) [Compound 146, 2-(7-(diethylamino)-4-methyl-2-oxo-2H-chromen-3-yl)ethyl (piperidin-3-ylmethyl)carbamate] |  |  |  |  | B (3 ≤ B < 0.6) | 
12 | CCN(CC)c1ccc2c(C)c(CCN3C(=O)NC4(CCN(S(=O)(=O)c5ccccc5)C4)C3=O)c(=O)oc2c1 (stereo not shown) [Compound 201, 3-(2-(7-(diethylamino)-4-methyl-2-oxo-2H-chromen-3-yl)ethyl)-7-(phenylsulfonyl)-1,3,7-triazaspiro[4.4]nonane-2,4-dione] |  |  |  |  | B (3 ≤ B < 0.6) | 
13 | CCN(CC)c1ccc2c(C)c(CCN3C(=O)NC4(CCN(C(=O)c5ccc(C(N)=O)cc5)CC4)C3=O)c(=O)oc2c1 [Compound 198, 4-(3-(2-(7-(diethylamino)-4-methyl-2-oxo-2H-chromen-3-yl)ethyl)-2,4-dioxo-1,3,8-triazaspiro[4.5]decane-8-carbonyl)benzamide] |  |  |  |  | B (3 ≤ B < 0.6) | 
14 | CCN(CC)c1ccc2c(C)c(CCN3C(=O)NC4(CCN(c5ncnc6c5cnn6C)CC4)C3=O)c(=O)oc2c1 [Compound 216, 3-(2-(7-(diethylamino)-4-methyl-2-oxo-2H-chromen-3-yl)ethyl)-8-(1-methyl-1H-pyrazolo[3,4-d]pyrimidin-4-yl)-1,3,8-triazaspiro[4.5]decane-2,4-dione] |  |  |  |  | C (C ≥ 0.6) | 
15 | CCN(CC)c1ccc2c(C)c(CCN3C(=O)NC4(CCN(c5nccn6ccnc56)CC4)C3=O)c(=O)oc2c1 [Compound 215, 3-(2-(7-(diethylamino)-4-methyl-2-oxo-2H-chromen-3-yl)ethyl)-8-(imidazo[1,2-a]pyrazin-8-yl)-1,3,8-triazaspiro[4.5]decane-2,4-dione] |  |  |  |  | C (C ≥ 0.6) | 
16 | CCN(CC)c1ccc2c(C)c(CCN3C(=O)NC4(CCN(C(=O)c5ccc[nH]c5=O)C4)C3=O)c(=O)oc2c1 (stereo not shown) [Compound 182, 3-(2-(7-(diethylamino)-4-methyl-2-oxo-2H-chromen-3-yl)ethyl)-7-(2-oxo-1,2-dihydropyridine-3-carbonyl)-1,3,7-triazaspiro[4.4]nonane-2,4-dione] |  |  |  |  | B (3 ≤ B < 0.6) | 

Second part, led by results:

Row | Counterscreen activity (%) [1] [%] | Thermolysin activity (%) [2] [%] | EC50 [3] [µM] | PK activity (%) [3, 8] [%] | Protection (fold protection of LC from protease) [5] | Structure (SMILES) | further results
17 | 0.94 ± 3.9 | 45.7 ± 7.0 | 4.18 | 58.7 ± 2.0 |  | CCN(CC)c1ccc2c(C)c(I)c(=O)oc2c1 [Compound 11] | 
18 | −7.4 ± 4.0 | 40.4 ± 1.2 | 6.33 | 48.9 ± 2.6 |  | CC(Oc1ccc(/C=C(\C#N)C(N)=O)cc1)c1ccccc1 (stereo not shown) [Compound 4] | 
19 | −1.54 ± 2.4 | 55.5 ± 3.3 | 4 | 48.0 ± 3.8 |  | CCN(CC)c1ccc2c(C)c(Cl)c(=O)oc2c1 [Compound 10] | 
20 |  |  | 18.5 |  |  | CC(=O)c1ccn(S(=O)(=O)c2ccccc2)c1 [Compound 17] | PK activity (%) ([3]; 10 μM in pilot screen, n=1): 58.1 (10 μM in pilot screen) %
21 | −3.45 ± 3.89 | 27.1 ± 1.3 | 7.9 | 37.9 ± 1.1 |  | CCN(CC)c1ccc2ccc(=O)oc2c1 [Compound 9] | protection of WIL-FL against PK proteolysis [4]: stabilizes WIL-FL, but is less efficacious than 1
22 | −2.52 ± 5.8 | 38.7 ± 3.7 |  | 43.3 ± 1.5 |  | Cc1cc(=O)oc2cc(OC(C)c3ccccc3)ccc12 (stereo not shown) [Compound 3] | 
23 | −4.35 ± 5.6 | 18.3 ± 4.9 | 9.28 | 34.2 ± 3.0 |  | CC(Oc1ccc2ccc(=O)oc2c1)c1ccccc1 (stereo not shown) [Compound 15] | 
24 |  | 45.1 ± 6.6 | 4.92 | 60.8 ± 2.7 |  | CC(C=NNc1ccc(S(N)(=O)=O)cc1[N+](=O)[O-])c1ccccc1 (stereo not shown) [Compound 6] | 
25 |  |  | 18 |  |  | CC(=O)c1ccc(S(=O)(=O)c2ccccc2)cc1 [Compound 18] | PK activity (%) ([3]; 10 μM in pilot screen, n=1): 46.5 (10 μM in pilot screen) %
26 | 8.04 ± 2.6 | 61.1 ± 5.0 | 5.51 | 65.2 ± 2.8 |  | Cc1cc(O)nc(N/N=C/C=C/c2ccccc2[N+](=O)[O-])n1 [Compound 5] | unfolding rate constant (extrapolated to the absence of denaturant) [6]: 2.43 s⁻¹; midpoint concentration of urea required to unfold the FL LC [7]: 2.0 M
27 |  |  |  |  | C (C ≥ 0.6) | CCN(CC)c1ccc2c(C)c(CCOC(=O)NCc3cccc(NC(C)=O)c3)c(=O)oc2c1 [Compound 117, 2-(7-(diethylamino)-4-methyl-2-oxo-2H-chromen-3-yl)ethyl (3-acetamidobenzyl)carbamate] | 
28 |  |  |  |  | A (A < 0.3)) | Cc1cc(=O)oc2cc(NCC3CC3)ccc12 [Compound 246, 7-((cyclopropylmethyl)amino)-4-methyl-2H-chromen-2-one] | 
